According to patent publication US20240150334A1, “HSD17B13 INHIBITORS AND/OR DEGRADERS” (Pfizer Inc., priority 2022, published 2024):
Structures can show the parent of a compound that is named as a salt.

Legend:
HSD17B13 enzyme = HSD17B13 enzyme (Homo sapiens (Human), UniProt Q7Z5P4); experiment: hHSD17B13 IC50 Assay (FAC beta-estradiol), purified protein enzyme activity assay with NAD(P)H-Glo luciferase readout; format: biochemical; details: geometric mean, 12 μM FAC beta-estradiol, 500 μM NAD+, read-out: hHSD17B13_IC50 GMean IC50
HSD17B13 enzyme, sequence (Q7Z5P4 20-300): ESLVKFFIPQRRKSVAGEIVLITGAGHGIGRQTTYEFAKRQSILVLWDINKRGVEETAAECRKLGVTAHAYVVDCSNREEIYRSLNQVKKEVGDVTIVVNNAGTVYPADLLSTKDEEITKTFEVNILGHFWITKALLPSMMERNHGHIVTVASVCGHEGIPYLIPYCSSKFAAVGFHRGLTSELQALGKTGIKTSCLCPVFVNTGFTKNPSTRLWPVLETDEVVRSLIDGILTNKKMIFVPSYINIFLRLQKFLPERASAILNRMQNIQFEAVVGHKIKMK
Description: The following protocols may of course be varied by those skilled in the art. hHSD17B13 IC50 Assay (FAC beta-estradiol)
HSD17B13 enzyme inhibition potency of test compounds was determined using a purified protein biochemical enzyme activity assay, using NAD(P)H-Glo luciferase readout (Promega). HSD17B13 enzyme uses the oxidized form of nicotinamide adenine dinucleotide (NAD+) as a cofactor during metabolism of Beta-Estradiol (substrate) to […], while converting NAD+ to the reduced form (NADH). The Promega NAD(P)H-Glo™ assay is a homogeneous bioluminescent assay that generates a light signal from biochemical reactions that contain NADH (or nicotinamide adenine dinucleotide phosphate, NADPH). In the presence of NADH (or NADPH), the enzyme Reductase reduces a proluciferin reductase substrate to form luciferin. Luciferin then is quantified using Ultra-Glo™ Recombinant Luciferase (rLuciferase), and the light signal produced is proportional to the amount of NAD(P)H in the sample. […] The reaction was initiated by the addition of 2 μL/well purified HSD17B13 protein (30 nM FAC in assay buffer). Compound, substrate mix and HSD17B13 protein was incubated in the dark at room temperature for 2 hours before the addition of 3 μL/well NAD(P)H-Glo detection reagent, prepared from luciferase detection reagent and reductase/reductase substrate, as per manufacturer's instructions (Promega, G9061). Detection reagent was incubated in the dark for 1 hour at room temperature before plates were read on the Envision plate reader (Perkin Elmer) using a luminescent protocol. Data expressed as relative luminescent units (RLUs) were then normalized to control wells using Activity Base (IDBS). Zero percent effect (ZPE) was defined as RLUs generated from uninhibited HSD17B13 protein (vehicle control).

wild type human HSD17B13 = wild type human HSD17B13 (Homo sapiens (Human), UniProt Q7Z5P4); experiment: HEK_Beta-Est LCMS_IC50_Tekcel, whole-cell HEK-HSD17B13 inhibition assay, estrone production by LCMS; format: cell-based; details: geometric mean, HEK cells stably expressing wild type human HSD17B13, 25 μM FAC beta-estradiol, read-out: HEK_Beta-Est LCMS_IC50—Tekcel GMean IC50
wild type human HSD17B13, sequence (Q7Z5P4 20-300): as above
How it was run: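 Readout was LCMS quantitation of estrone made from beta-estradiol with NAD+ as cofactor. Whole HEK-HSD17B13 cells were given compound for 1 hour, then the reaction for 2 hours, both at 37° C. Product area ratios were normalized to vehicle controls as zero percent effect.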

O=C(NC[C@H]1CC[C@H](c2nc3ccccc3o2)CC1)c1cc(F)c(O)c(F)c1 [Example 1, N-{[(1r,4r)-4-(1,3-Benzoxazol-2-yl)cyclohexyl]methyl}-3,5-difluoro-4-hydroxybenzamide]
IC50 (HSD17B13 enzyme): 14 nM
IC50 (wild type human HSD17B13): 490 nM

O=C(NC[C@H]1CC[C@H](c2nc(-c3ccc(C(F)(F)F)cn3)no2)CC1)c1cc(F)c(O)c(F)c1 [Example 2, 3,5-Difluoro-4-hydroxy-N-{[(1r,4r)-4-{3-[5-(trifluoromethyl)pyridin-2-yl]-1,2,4-oxadiazol-5-yl}cyclohexyl]methyl}benzamide]
IC50 (HSD17B13 enzyme): 12 nM
IC50 (wild type human HSD17B13): 470 nM

O=C(NC[C@H]1CC[C@H](c2nc(-c3ncc(C(F)(F)F)cn3)no2)CC1)c1cc(F)c(O)c(F)c1 [Example 4, 3,5-Difluoro-4-hydroxy-N-{[(1r,4r)-4-{3-[5-(trifluoromethyl)pyrimidin-2-yl]-1,2,4-oxadiazol-5-yl}cyclohexyl]methyl}benzamide]
IC50 (HSD17B13 enzyme): 5.5 nM
IC50 (wild type human HSD17B13): 290 nM

Cn1cc(-c2ccc3cn([C@H]4CC[C@H](CNC(=O)c5cc(F)c(O)c(F)c5F)CC4)nc3c2)cn1 [Example 5, 2,3,5-Trifluoro-4-hydroxy-N-({(1r,4r)-4-[6-(1-methyl-1H-pyrazol-4-yl)-2H-indazol-2-yl]cyclohexyl}methyl)benzamide, trifluoroacetate salt]
IC50 (HSD17B13 enzyme): > 2500 nM
IC50 (wild type human HSD17B13): 72 nM

COc1cc2cn([C@H]3CC[C@H](CNC(=O)c4cc(F)c(O)c(F)c4)CC3)nc2cn1 [Example 6, 3,5-Difluoro-4-hydroxy-N-{[(1r,4r)-4-(5-methoxy-2H-pyrazolo[3,4-c]pyridin-2-yl)cyclohexyl]methyl}benzamide]
IC50 (HSD17B13 enzyme): 21 nM
IC50 (wild type human HSD17B13): 440 nM

COc1ncc(-c2cc3nn([C@H]4CC[C@H](CNC(=O)c5cc(F)c(O)c(F)c5)CC4)cc3cn2)cn1 [Example 8, 3,5-Difluoro-4-hydroxy-N-({(1r,4r)-4-[6-(2-methoxypyrimidin-5-yl)-2H-pyrazolo[4,3-c]pyridin-2-yl]cyclohexyl}methyl)benzamide]
IC50 (HSD17B13 enzyme): 18 nM
IC50 (wild type human HSD17B13): 320 nM

COc1ccc2cn([C@H]3CC[C@H](CNC(=O)c4cc(F)c(O)c(F)c4)CC3)nc2c1 [Example 23, 3,5-difluoro-4-hydroxy-N-{[(1r,4r)-4-(6-methoxy-2H-indazol-2-yl)cyclohexyl]methyl} benzamide]
IC50 (HSD17B13 enzyme): 20 nM

O=C(NC[C@H]1CC[C@H](c2cn3cc(-c4cnn(C(F)F)c4)ccc3n2)CC1)c1cc(F)c(O)c(F)c1F [Example 167, N-{[(1r,4r)-4-{6-[1-(difluoromethyl)-1H-pyrazol-4-yl]imidazo [1,2-a]pyridin-2-yl}cyclohexyl]methyl}-2,3,5-trifluoro-4-hydroxy-benzamide, trifluoroacetate salt]
IC50 (wild type human HSD17B13): 200 nM

Cn1nc(-c2noc([C@]34CC[C@](CNC(=O)c5cc(F)c(O)c(F)c5F)(CC3)CC4)n2)ccc1=O [Example 168, 2,3,5-trifluoro-4-hydroxy-N-({4-[3-(1-methyl-6-oxo-1,6-dihydropyridazin-3-yl)-1,2,4-oxadiazol-5-yl]bicyclo[2.2.2]octan-1-yl}methyl) benzamide]
IC50 (wild type human HSD17B13): 380 nM

O=C(NC[C@H]1CC[C@H](n2cc3cnc(-c4cccnc4)cc3n2)CC1)c1cc(F)c(O)c(F)c1 [Example 189, 3,5-difluoro-4-hydroxy-N-({(1r,4r)-4-[6-(pyridin-3-yl)-2H-pyrazolo[4,3-c]pyridin-2-yl]cyclohexyl}methyl) benzamide]
IC50 (wild type human HSD17B13): 430 nM

CC(C)(C)OC(=O)N[C@]12CC[C@](CNC(=O)c3cc(F)c(O)c(F)c3)(CC1)CC2 [Example 192, tert-butyl {4-[(3,5-difluoro-4-hydroxybenzamido)methyl]bicyclo[2.2.2]octan-1-yl}carbamate]
IC50 (wild type human HSD17B13): 480 nM

Cc1cccc(-c2noc([C@]34CC[C@](CNC(=O)c5cc(F)c(O)c(F)c5)(CC3)CC4)n2)n1 [Example 194, 3,5-difluoro-4-hydroxy-N-({4-[3-(6-methylpyridin-2-yl)-1,2,4-oxadiazol-5-yl]bicyclo[2.2.2]octan-1-yl}methyl) benzamide]
IC50 (wild type human HSD17B13): 230 nM

COc1ncc(-c2cc3cn([C@H]4CC[C@H](CNC(=O)c5cc(F)c(O)c(F)c5)CC4)nc3cn2)cn1 [Example 201, 3,5-difluoro-4-hydroxy-N-({(1r,4r)-4-[5-(2-methoxypyrimidin-5-yl)-2H-pyrazolo[3,4-c]pyridin-2-yl]cyclohexyl}methyl) benzamide, trifluoroacetate salt]
IC50 (wild type human HSD17B13): 350 nM

O=C(NC[C@]12CC[C@](c3nc(-c4ncc(C(F)(F)F)cn4)no3)(CC1)CC2)c1cc(F)c(O)c(F)c1 [Example 203, 3,5-difluoro-4-hydroxy-N-[(4-{3-[5-(trifluoromethyl)pyrimidin-2-yl]-1,2,4-oxadiazol-5-yl}bicyclo[2.2.2]octan-1-yl)methyl]benzamide]
IC50 (wild type human HSD17B13): 98 nM

Cn1cc(-c2ccc3cn([C@]45CC[C@](CNC(=O)c6cc(F)c(O)c(F)c6)(CC4)CC5)nc3c2)cn1 [Example 204, 3,5-difluoro-4-hydroxy-N-({4-[6-(1-methyl-1H-pyrazol-4-yl)-2H-indazol-2-yl]bicyclo[2.2.2]octan-1-yl}methyl)benzamide]
IC50 (wild type human HSD17B13): 99 nM

O=C(NC[C@]12CC[C@](n3cc4ccc(Br)cc4n3)(CC1)CC2)c1cc(F)c(O)c(F)c1 [Example 205, N-{[4-(6-bromo-2H-indazol-2-yl)bicyclo[2.2.2]octan-1-yl]methyl}-3,5-difluoro-4-hydroxybenzamide]
IC50 (wild type human HSD17B13): 220 nM

O=C(NC[C@]12CC[C@](n3cc4ccc(-c5cncnc5)cc4n3)(CC1)CC2)c1cc(F)c(O)c(F)c1 [Example 206, 3,5-difluoro-4-hydroxy-N-({4-[6-(pyrimidin-5-yl)-2H-indazol-2-yl]bicyclo [2.2.2]octan-1-yl}methyl)benzamide]
IC50 (wild type human HSD17B13): 150 nM

O=C(NC[C@]12CC[C@](n3cc4ccc(-c5ncccn5)cc4n3)(CC1)CC2)c1cc(F)c(O)c(F)c1 [Example 207, 3,5-difluoro-4-hydroxy-N-({4-[6-(pyrimidin-2-yl)-2H-indazol-2-yl]bicyclo [2.2.2]octan-1-yl}methyl)benzamide]
IC50 (wild type human HSD17B13): 140 nM

O=C(NC[C@]12CC[C@](n3cc4ccc(-c5cnccn5)cc4n3)(CC1)CC2)c1cc(F)c(O)c(F)c1 [Example 208, 3,5-difluoro-4-hydroxy-N-({4-[6-(pyrazin-2-yl)-2H-indazol-2-yl]bicyclo [2.2.2]octan-1-yl}methyl)benzamide]
IC50 (wild type human HSD17B13): 120 nM

Cn1cc(-c2ccc3cn([C@]45CC[C@](CNC(=O)c6cc(F)c(O)c(F)c6F)(CC4)CC5)nc3c2)cn1 [Example 209, 2,3,5-trifluoro-4-hydroxy-N-({4-[6-(1-methyl-1H-pyrazol-4-yl)-2H-indazol-2-yl]bicyclo[2.2.2]octan-1-yl}methyl)benzamide]
IC50 (wild type human HSD17B13): 150 nM

Cc1noc([C@H]2CC[C@H](CNC(=O)c3cc(F)c(O)c(F)c3)CC2)n1 [Example 213, 3,5-difluoro-4-hydroxy-N-{[(1r,4r)-4-(3-methyl-1,2,4-oxadiazol-5-yl)cyclohexyl]methyl}benzamide]
IC50 (HSD17B13 enzyme): 64 nM

Cc1noc([C@H]2CC[C@H](CNC(=O)c3ccc(O)c(F)c3)CC2)n1 [Example 214, 3-fluoro-4-hydroxy-N-{[(1r,4r)-4-(3-methyl-1,2,4-oxadiazol-5-yl)cyclohexyl]methyl} benzamide]
IC50 (HSD17B13 enzyme): 290 nM
